Laboratory results taken from patent US9980942B2, “Rejuvenation of precursor cells” (Children's Hospital Medical Center, priority 2012, dated 2018).
“Also recorded” adds a separate entry of the source.

Key:
Cdc42 = molecular target: T1, Cdc42 (Mus musculus, UniProt P60766); experiment: Cdc42-GTPase effector domain pull-down / Western blot; format: cell-based; details: CASIN 5 μM, aged lineage depleted bone marrow cells
T1 construct: lineage depleted BM cells (10^6) were lysed in a Mg2+ lysis/wash buffer; endogenous in cells; host or cells: lineage-depleted bone marrow (Lin- BM) cells from aged C57BL/6 mice
Protocol: Relative levels of GTP-bound Cdc42 were determined by an effector pull-down assay. Briefly, lineage depleted BM cells (10^6) were lysed in a Mg2+ lysis/wash buffer (Upstate cell signaling solutions) containing 10% glycerol, 25 mM sodium fluoride, 1 mM sodium orthovanadate and a protease inhibitor cocktail (Roche Diagnostics). Samples were incubated with PAK-1 binding domain/agarose beads and bound (activated) as well as unbound (non-activated) Cdc42 fractions were probed by immunoblotting with an anti-Cdc42 antibody (Millipore, rabbit polyclonal). Activated protein was normalized to total protein and/or β-actin (Sigma) and the relative amount was quantified by densitometry.

intestinal epithelium = experiment: In vivo rejuvenation of intestinal epithelium (immunohistochemistry); details: vs untreated aged mice
Protocol: (§1) To test the extent to which CASIN rejuvenates skin and intestinal epithelium in vivo, aged (22-24 month old B1 6) and young (10-12 week old B1 6) mice were injected with CASIN twice daily (2.4 mg/Kg in PBS and 15% EtOH). A group of control mice in each age group were not given the drug. The injections were given 6 hours apart for 5 days. After 28 days, the mice were sacrificed and skin and intestinal samples were processed for immunohistochemistry.
To further assess the effects of in vivo administration of CASIN on aging parameters in the intestinal epithelium, aged mice were treated with CASIN as described in Example 5. After 28 days, the mice were sacrificed and intestinal samples were processed for immunohistochemistry, including staining for intestinal stem cell markers Bmi1 and Lgr5.

aged LT-HSCs [1] = experiment: Immunofluorescence polarity scoring of Cdc42 and tubulin; format: cell-based, mouse
Protocol: Freshly sorted LT-HSCs were seeded on fibronectin-coated glass coverslips in HBSS+10% FBS. CASIN (referred to in (Peterson et al., 2006) as Pirl1-related compound 2) was obtained from Chembridge Corporation, and purified to greater than 99% by high-performance liquid chromatography. After 16 hours of incubation at 37° C., 5% CO2, 3% O2, cells were fixed with BD Cytofix Fixation Buffer (BD Biosciences).
After fixation cells were gently washed with PBS, permeabilized with 0.2% Tryton X-100 (Sigma) in PBS for 20 minutes and blocked with 10% Donkey Serum (Sigma) for 30 minutes. Primary and secondary antibodies incubations were performed for 1 hr at room temperature. […] The cells were coimmunostained with an anti-alpha tubulin antibody (Abcam, rat monoclonal ab6160) detected with an anti-rat AMCA-conjugated secondary antibody or an anti-rat DyLight 488-conjugated antibody (Jackson ImmunoResearch), an anti-Cdc42 antibody (Millipore, rabbit polyclonal) detected with an anti-rabbit DyLight 549-conjugated antibody (Jackson ImmunoResearch) and an anti-Pericentrin-2 antibody (Santa Cruz Biotechnology, goat polyclonal) detected with an anti-goat MCAconjugated antibody (Jackson ImmunoResearch). […] Images were analyzed with AxioVision 4.6 software. Alternatively, samples were analyzed with an LSM710 confocal microscope (Zeiss) equipped with a 63X objective. […]

aged LT-HSCs [2] = experiment: Apoptosis and cell cycle staining (Hoechst/Pyronin Y, Annexin V); format: cell-based, mouse; details: 5 μM CASIN, 16 hrs
Protocol: Hoechst/PY staining was performed as previously described (Passegue et al., 2005). Briefly, 25,000 FACS-sorted LT-HSCs were incubated for 16 hrs in HBSS+10% FBS±CASIN (5 μM) in a water jacketed incubator at 37° C., 5% CO2, 3% O2. Then HOECHST 33342 (Invitrogen) was added directly to the medium at a final concentration of 20 μg/ml and samples were kept in incubation at 37° C., 5% CO2, 3% O2 for 45 min. PironinY (Sigma-Aldrich) was then added at a concentration of 1 μg/ml, and cells were incubated for additional 15 minutes. Cells were resuspended and incubated with anti-Annexin V (BD Pharmingen) according to manufacturer's instruction, washed and immediately analyzed on a LSRII (BD Biosciences).

[3] = Weight of young and aged mice after CASIN; format: in vivo, C57BL/6 mice; details: aged mice, 2.4 mg/kg twice a day for 5 days intraperitoneal, after 1 week
Protocol: CASIN was given at a dose of 2.4 mg/kg twice a day 6 hours apart for 5 days via intraperitoneal injection in both young (10-12 wk old) and aged (22-24 month old) C57BL/6 mice. Aged C57BL/6 mice present with elevated Cdc42 activity in multiple tissues. Weight of the mice was determined in the young and aged control group (no CASIN, just vehicle (PBS/15% Ethanol)) at initiation of the experiment and after 1 week, as well as in the CASIN treated groups (young and aged) at initiation and 1 week after.

skin epithelium = experiment: In vivo rejuvenation of skin epithelium (immunohistochemistry, skin thickness); parameters: species or system mice
Protocol: as §1
To further assess the effects of in vivo administration of CASIN on aging parameters in the skin, aged mice were treated with CASIN as described in Example 5. The treated and untreated aged and young mice were then tested for skin thickness.

aged HSCs = experiment: Whole genome expression profiling of HSCs; format: cell-based; details: CASIN treated aged HSCs
Source text: Aged HSCs have distinct whole genome expression profiles. To define the effect of Cdc42 inhibition by CASIN on molecular pathways regulating HSCs, cDNA was derived from linearly amplified RNA from CASIN-treated or untreated aged or young HSCs, using tested amplification, array hybridization and bioinformatic analysis services provided by the company Miltenyi. The goal of these experiments was to identify changes in whole genome expression patterns or in functionally defined groups of genes, rather than changes in individual genes. Differences in expression of functional gene groups was confirmed by real-time RT-PCR of selected genes using the standard ABI/Taqman probe system.

[4] = aged mice treated as in Example 5, after 28 days

T1 sequence (P60766 whole entry, the tested form may be a part): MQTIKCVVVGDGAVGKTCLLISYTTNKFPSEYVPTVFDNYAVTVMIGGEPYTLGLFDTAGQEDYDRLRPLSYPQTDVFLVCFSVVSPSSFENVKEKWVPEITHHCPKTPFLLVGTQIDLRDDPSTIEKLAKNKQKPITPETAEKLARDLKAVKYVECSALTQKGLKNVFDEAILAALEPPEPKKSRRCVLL

OCCNC1CCCc2c1[nH]c1ccc(-c3ccccc3)cc21 (stereo not drawn) [CASIN]
level of active Cdc42 (Cdc42-GTP) (Cdc42): reduced the elevated level of active Cdc42 observed in aged primitive hematopoietic cells to the level observed in young cells | number of stem cells in crypts (Bmi1 and Lgr5 staining) (intestinal epithelium; [4]): renewed number of stem cells | shape, size and distribution of villi and crypts (intestinal epithelium; [4]): marked improvement | shape, number and density of crypts (intestinal epithelium; aged mice, 2.4 mg/Kg twice daily for 5 days, after 28 days): marked improvement | time the increase in percentage of polar cells remained stable after CASIN withdrawal (aged LT-HSCs [1]; aged LT-HSCs in vitro): ≥ 6 h | percentage of polarized cells (Cdc42 and tubulin) (aged LT-HSCs [1]; aged LT-HSCs, 2.5 and 5 μM CASIN): dose-dependent increase | apoptosis (aged LT-HSCs [2]): did not alter; also recorded: doesn't alter | cell cycle status (aged LT-HSCs [2]): did not alter; also recorded: doesn't alter | weight [3]: significant reduction; also recorded: weight loss | skin thickness (skin epithelium; aged mice treated as in Example 5): approximately equal to that of young mice | number and density of hair follicles (skin epithelium; aged mice, 2.4 mg/Kg twice daily for 5 days, after 28 days, vs untreated aged mice): marked improvement | whole genome expression pattern (aged HSCs): largely resemble young HSCs
